#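 Grown in 96-well plates, cells were treated for 48 hours with each compound at five concentrations. Insufficient inhibition: endpoint recorded as highest concentration tested. At the GI50, growth is halved.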 Active and inactive are the calls of the source. Rule as the data show it: active = GI50 up to about 1.1 µM and inactive = higher.
# Key:
# Test in all cases: NCI anticancer screen, dose series, 48 h
# [1] = tested on: 786-0
# [2] = tested on: HL-60
# [3] = tested on: KM12
# [4] = tested on: LOX IMVI
# [5] = tested on: M14
# [6] = tested on: MDA-N
# [7] = tested on: NCI-H23
# [8] = tested on: OVCAR-3
# [9] = tested on: OVCAR-5
# [10] = tested on: OVCAR-8
# [11] = tested on: SF-268
# [12] = tested on: SF-539
# [13] = tested on: SNB-19
# [14] = tested on: SNB-75
# [15] = tested on: T47D
# [16] = tested on: TK-10
# [17] = tested on: UACC-257
# [18] = tested on: UACC-62
# [19] = tested on: BT-549
Structure (SMILES),GI50 [1],GI50 [2],GI50 [3],GI50 [4],GI50 [5],GI50 [6],GI50 [7],GI50 [8],GI50 [9],GI50 [10],GI50 [11],GI50 [12],GI50 [13],GI50 [14],GI50 [15],GI50 [16],GI50 [17],GI50 [18],GI50 [19]
CCCN1CN(c2ccccc2)C2(CCN(CCCC(=O)c3ccc(F)cc3)CC2)C1=O,5.15 µM (inactive),16.6 µM (inactive),16.3 µM (inactive),4.41 µM (inactive),12.4 µM (inactive),9.38 µM (inactive),4.12 µM (inactive),13.8 µM (inactive),5.06 µM (inactive),16.7 µM (inactive),5.56 µM (inactive),4.49 µM (inactive),13.2 µM (inactive),15 µM (inactive),4.61 µM (inactive),6.62 µM (inactive),0.405 µM (active),16.3 µM (inactive),
COc1ccc(N2C(=O)C(=O)N(c3ccc(/N=N\c4ccccc4)cc3)C2=S)cc1,17.5 µM (inactive),47.3 µM (inactive),17.5 µM (inactive),18.7 µM (inactive),,19.3 µM (inactive),18.5 µM (inactive),,21.1 µM (inactive),17.9 µM (inactive),22.1 µM (inactive),19.2 µM (inactive),21.9 µM (inactive),22.6 µM (inactive),18.8 µM (inactive),20.7 µM (inactive),18.4 µM (inactive),16.6 µM (inactive),
CCOC(=O)C(Cc1ccccc1)NC(=O)c1ccc(/N=N/N(C)C)cc1 (stereo unspecified),> 100 µM (inactive),> 100 µM (inactive),> 100 µM (inactive),> 100 µM (inactive),> 100 µM (inactive),,> 100 µM (inactive),> 100 µM (inactive),> 100 µM (inactive),> 100 µM (inactive),> 100 µM (inactive),> 100 µM (inactive),> 100 µM (inactive),> 100 µM (inactive),,> 100 µM (inactive),> 100 µM (inactive),> 100 µM (inactive),
COc1ccc2[nH]cc(CCNC(=O)[C@H](Cc3ccc(O)cc3)NC(=O)[C@@H](NCC(F)(F)F)C(C)C)c2c1,> 100 µM (inactive),41.3 µM (inactive),> 100 µM (inactive),25.2 µM (inactive),> 100 µM (inactive),45.1 µM (inactive),> 100 µM (inactive),20.1 µM (inactive),> 100 µM (inactive),76 µM (inactive),,> 100 µM (inactive),> 100 µM (inactive),,,> 100 µM (inactive),62.5 µM (inactive),> 100 µM (inactive),67.5 µM (inactive)
Cc1ccccc1NC(=O)Cc1csc(N/N=C2\NC(=O)/C(=C/c3cccc([N+](=O)[O-])c3)S2)n1,45.2 µM (inactive),17.8 µM (inactive),16.6 µM (inactive),30.3 µM (inactive),17 µM (inactive),30.5 µM (inactive),19.1 µM (inactive),19.7 µM (inactive),22.6 µM (inactive),31.8 µM (inactive),,17.1 µM (inactive),16.1 µM (inactive),13.1 µM (inactive),17.1 µM (inactive),18.9 µM (inactive),20.3 µM (inactive),,
OCC(CCc1ccccc1I)C1=CCC2(CC1)OCCO2 (stereo unspecified),19.9 µM (inactive),3.53 µM (inactive),16.4 µM (inactive),14.9 µM (inactive),20 µM (inactive),18.2 µM (inactive),20.5 µM (inactive),18.6 µM (inactive),15.7 µM (inactive),17 µM (inactive),17.8 µM (inactive),17.6 µM (inactive),18.5 µM (inactive),19.4 µM (inactive),17.7 µM (inactive),23.5 µM (inactive),21.6 µM (inactive),16.4 µM (inactive),
Cc1sc2nc(-c3cc([N+](=O)[O-])c(Cl)cc3Cl)c(/C=N/NC(=N)N)n2c1C,5.46 µM (inactive),,3.63 µM (inactive),2.29 µM (inactive),2.76 µM (inactive),,4.08 µM (inactive),4.06 µM (inactive),32.2 µM (inactive),5.7 µM (inactive),10.5 µM (inactive),30.5 µM (inactive),,,,13.9 µM (inactive),10 µM (inactive),14.7 µM (inactive),3.59 µM (inactive)
Cc1ccc(S(=O)(=O)NC(=O)Nc2ccc(S(N)(=O)=O)cc2S(N)(=O)=O)cc1,> 100 µM (inactive),> 100 µM (inactive),> 100 µM (inactive),> 100 µM (inactive),> 100 µM (inactive),> 100 µM (inactive),> 100 µM (inactive),> 100 µM (inactive),> 100 µM (inactive),> 100 µM (inactive),> 100 µM (inactive),,> 100 µM (inactive),> 100 µM (inactive),,> 100 µM (inactive),> 100 µM (inactive),> 100 µM (inactive),> 100 µM (inactive)

# From ChEMBL document CHEMBL1201862, “PubChem BioAssay data set” (2004)
